Laboratory results reported in US12037324B2, “Biarylmethyl heterocycles” (Université de Montréal, priority 2016, dated 2024).

How the values were obtained:
AGTR1 [1] = target: T1, AGTR1 (Homo sapiens, UniProt P30556); assay: DiscoveRx IP1 accumulation assay (HTRF), agonist mode, Pathunter CHO-K1 AGTR1 β-arrestin cell line; type: cell-based; conditions: for EC50: read-out: IP-1 EC50
T1 construct: host or cells: Pathunter CHO-K1 AGTR1 β-arrestin cell line (CHO-K1)
T1 sequence (P30556 1-359): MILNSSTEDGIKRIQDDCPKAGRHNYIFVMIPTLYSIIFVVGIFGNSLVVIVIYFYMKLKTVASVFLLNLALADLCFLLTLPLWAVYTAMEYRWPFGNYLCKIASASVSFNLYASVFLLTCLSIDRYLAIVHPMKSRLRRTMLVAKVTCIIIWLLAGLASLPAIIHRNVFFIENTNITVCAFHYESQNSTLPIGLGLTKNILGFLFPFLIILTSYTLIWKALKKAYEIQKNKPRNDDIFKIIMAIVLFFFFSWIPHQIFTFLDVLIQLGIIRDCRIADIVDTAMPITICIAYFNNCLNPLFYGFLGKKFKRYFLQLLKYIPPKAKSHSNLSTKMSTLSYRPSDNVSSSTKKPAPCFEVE
Method in brief: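 Agonist mode in CHO-K1 AGTR1 β-arrestin cells plated 14-16 h before; compounds at varying concentrations for 90 min at 37° C, IP1 accumulation read by HTRF (D2-conjugate and anti-IP1 cryptate, 20 min room temperature). EC50 from 4-parameter logistic fit; activity given as percentage of maximal AII effect.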

AGTR1 [2] = target: T1, AGTR1; assay: DiscoveRx β-arrestin2 recruitment assay (enzyme complementation, Pathunter CHO-K1 AGTR1 β-arrestin cell line); type: cell-based; conditions: DiscoveRx β-arrestin2 recruitment; for DiscoveRx β-arrestin2 Ymax (%): maximal response
Method in brief: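 CHO-K1 cells expressing AGTR1 with β-arrestin2 enzyme-complementation reporter, plated 14-16 h ahead in 1% serum medium, then exposed to compounds for 90 min at 37° C. Chemiluminescence read after 1 h detection. EC50 (agonist) or IC50 (antagonist) from 4-parameter logistic fit; activity as percentage of All maximal effect.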

hAT1R [3] = target: T2, hAT1R (Homo sapiens, UniProt P30556); assay: BRET β-arrestin2 biosensor assay, higher receptor expression (hAT1R 5 ng/well), HEK293 cells; type: cell-based; conditions: for EC50: High AT1R Expression
T2 sequence (P30556 1-359): T1 sequence (P30556 1-359)

hAT1R [4] = target: T2, hAT1R; assay: cell-based; conditions: agonist mode; for EC50: read-out: BRET P63 EC50
hAT1R [5] = target: T2, hAT1R; assay: cell-based; conditions: section of the 42nd table ending at r951, example numbering restarts after the DiscoveRx section; read-out: β-arrestin2 EC50
hAT1R [6] = target: T2, hAT1R; assay: BRET Gq biosensor assay, agonist response, HEK293 cells; type: cell-based; conditions: section of the 42nd table directly before the BRET P63 section
Procedure: BRET β-arrestin2 and Gq Activation Assays
In another aspect of the invention, association of the ATIR with signaling proteins is assessed using bioluminescence resonance energy transfer assays (Stephane Angers, Ali Salahpour et al. 2002). This technology measures the association between bioluminescent and fluorescent protein tags.
Several of the plasmid constructs used in BRET experiments were previously described. Briefly, the coding sequence of β-arrestin2 was fused to Renilla luciferase II to generate β-arrestin2-Rluc (Quoyer, Janz et al. 2013). The membrane targeting motif from K-Ras, CAAX motif (GKKKKKKSKTKCVIM), was fused to Renilla GFP to create rGFP-CAAX plasmid (Namkung Y et al., Nat Commun (2016) 7, 12178). The Renilla luciferase II was inserted in the Gaq protein to generate Gaq-Rluc (Breton, Sauvageau et al. 2010). The Gγ1 protein was tagged with GFP10 to obtain GFP-Gyl, using the same strategy described previously for GFP-Gy2 (Gales, Rebois et al. 2005). The Gaq binding domain of the p63RhoGEF protein (amino acids 295-502) was fused to Renilla luciferase II to create P63-Rluc. Finally, the hAT1R plasmid construct encoding the receptor was generated by optimizing the coding sequence of human angiotensin II receptor (GeneOptimizer from ThermoFisher), and adding an artificial cleavable signal peptide from bovine prolactin ([…]) in N-terminus of the receptor to increase cell surface expression.
Gq Biosensor Assay HEK293 cells were cultured in DMEM supplemented with Penicillin-Streptomycin and 10% fetal bovine serum. Two days before the BRET experiment, HEK293 cells were transfected with hAT1R expression plasmid (200 ng/well) as well as Gaq-Rluc (100 ng/well), Gβ1 (375 ng/well) and GFP-Gγ1 (625 ng/well), using linear polyethylenimine 25 kDa (PEI) at a PEI:DNA ratio of 3:1. Transfected cells were directly seeded in 96-well plates, at a density of 35 000 cells per well, and maintained in culture for the next 48 h.
BRET experiments were carried out subsequently using the following procedures: cells were washed once with Tyrode's buffer (137 mM NaCl, 1 mM CaCl2, 0.9 mM KCl, […], 3.6 mM NaH2PO4, 5.5 mM glucose, 12 mM NaHCO3, and 25 mM HEPES, pH 7.4) and 90 μl of Tyrode's buffer was added to each well. Cells were equilibrated in their new buffer at room temperature for at least 30 minutes. Following the equilibration period, the coelenterazine substrate was first added to the cells, 10 μl per well of a 10×solution (prolume purple coelenterazine at a final concentration of 2 μM), immediately followed by compound addition using the HP D300 digital dispenser from Tecan (10 singlicate concentrations). Cells were incubated for 5 min at room temperature and BRET readings were then collected using a Synergy Neo Multi-Mode reader from BioTek with BRET2 filters 410/515, to record agonist response. […] A second reading was collected 5 min after this second addition, using the Synergy Neo Multi-Mode reader from BioTek with BRET2 filters 410/515, to record antagonist response. The BRET signal was determined by calculating the ratio of the light emitted by GFP (515 nm) over the light emitted by the Rluc (410 nm). To analyze agonist response, BRET signal values were converted into percentage of activation using the non-stimulated control as 0% and AngII maximal response as 100%. Sigmoidal concentration-response curves were generated with those normalized values using a 4-parameter logistic equation (IDBS ActivityBase software), to determine EC50 of the different compounds. In the case of antagonist response analysis, BRET signal values were converted into percentage of inhibition using the fixed dose of AngII (corresponding to the EC50) as 0% and non-stimulated control as 100%. Sigmoidal concentration-response curves were generated with those normalized values using a 4-parameter logistic equation (IDBS ActivityBase software), to determine IC50 of the different compounds.

| Compound | IP-1 Ymax (%) (AGTR1 [1]) | EC50 (AGTR1 [1]) [nM] | EC50 (AGTR1 [2]) [nM] | DiscoveRx β-arrestin2 Ymax (%) (AGTR1 [2]) | BRET β-Arrestin2 High AT1R Expression Ymax (%) (hAT1R [3]) | EC50 (hAT1R [3]) [nM] | BRET P63 Ymax (hAT1R [4]) [%] | EC50 (hAT1R [4]) [nM] | EC50 (hAT1R [5]) [nM] | EC50 (hAT1R [6]) [nM] |
| --- | --- | --- | --- | --- | --- | --- | --- | --- | --- | --- |
| CCc1nc2c(C)cc(C)nc2n1Cc1ccc(-c2cc(Oc3cccnc3)ccc2-c2nnn[nH]2)cc1 [Example 257] | 10.7 | 28.3 | 9 | 34.9 | 87.3 | 10 | 10.8 | 23.7 | 29.1 | – |
| CCc1nc2c(C)cc(C)nc2n1Cc1ccc(-c2cc(Oc3cncnc3)ccc2-c2nnn[nH]2)cc1 [Example 258] | 15.1 | 42.8 | 23.1 | 35.2 | 75.7 | 41.5 | 17.5 | 140 | 81.9 | – |
| CCc1nc2c(C)cc(C)nc2n1Cc1ccc(-c2cc(Oc3cncc(C)c3)ccc2-c2nn[nH]n2)cc1 [Example 260] | 18.5 | 175 | 51.7 | 36.4 | 87.9 | 7.8 | – | > 100000 | 49.9 | – |
| CCCCC(=O)N(Cc1ccc(-c2cc(-c3ccccc3)ccc2-c2nn[nH]n2)cc1)C(C)(C)C(=O)O [Example 268, 2-(N-((6′-(2H-Tetrazol-5-yl)-[1,1′:3′,1″-terphenyl]-4-yl)methyl)pentanamido)-2-methylpropanoic acid] | – | – | 628 | 39.8 | 73.8 | 1030 | – | – | – | 1090 |
| CCCCC(=O)N(Cc1ccc(-c2cc(-c3ccccc3)ccc2-c2nn[nH]n2)cc1)C1(C(=O)O)CC1 [Example 269] | – | – | 6540 | 14.2 | 58.7 | 30700 | – | – | – | > 100000 |
| CCCCC(=O)N(Cc1ccc(-c2cc(-c3ccccc3)ccc2-c2nn[nH]n2)cc1)C1(C(=O)O)CCC1 [Example 270] | – | – | 6550 | 28.6 | 74.3 | 12900 | – | – | – | 4680 |
| CCCCC(=O)N(Cc1ccc(-c2cc(-c3ccccc3)ccc2-c2nn[nH]n2)cc1)C1(C(=O)O)CCCC1 [Example 271] | – | – | 384 | 45.5 | 80.3 | 561 | – | – | – | 590 |
| CCOc1nc2cccc(C(=O)O)c2n1Cc1ccc(-c2cc(-c3ccc(OC)cn3)ccc2-c2noc(=O)[nH]2)cc1 [Example 308] | – | – | 29.1 | 51.8 | – | – | – | – | – | 27.3 |
| CCOc1nc2cccc(C(=O)O)c2n1Cc1ccc(-c2cc(N3CC(C)(C)c4ccccc43)ccc2C(=O)O)cc1 [Example 319, 1-((2′-carboxy-5′-(3,3-dimethylindolin-1-yl)-[1,1′-biphenyl]-4-yl)methyl)-2-ethoxy-1H-benzo[d]imidazole-7-carboxylic acid] | – | – | 71.1 | 49.0 | – | – | – | – | – | 787 |
| CCOc1nc2cccc(C(=O)O)c2n1Cc1ccc(-c2cc(-c3cnc(OC)c(C)c3)ccc2-c2nn[nH]n2)cc1 [Example 328, 2-ethoxy-1-((5′-(6-methoxy-5-methylpyridin-3-yl)-2′-(2H-tetrazol-5-yl)-[1,1′-biphenyl]-4-yl)methyl)-1H-benzo[d]imidazole-7-carboxylic acid] | – | – | 802 | 51.8 | – | – | – | – | – | 2620 |
| CCCCc1nc(Cl)c(C(=O)O)n1Cc1ccc(-c2cc(N3CCC[C@H](C)C3)ccc2-c2noc(=O)[nH]2)cc1 [Example 407, (S)-2-butyl-4-chloro-1-((5′-(3-methylpiperidin-1-yl)-2′-(5-oxo-4,5-dihydro-1,2,4-oxadiazol-3-yl)-[1,1′-biphenyl]-4-yl)methyl)-1H-imidazole-5-carboxylic acid] | – | – | 173 | 24.6 | – | – | – | – | – | 16600 |
| CCCCc1nc(Cl)c(C(=O)O)n1Cc1ccc(-c2cc(-n3ccc4ccccc43)ccc2-c2noc(=O)[nH]2)cc1 [Example 408] | – | – | 23.3 | 32.5 | – | – | – | – | – | > 100000 |
| CCCCc1nc(Cl)c(C(=O)OCc2oc(=O)oc2C)n1Cc1ccc(-c2cc(-c3ccccc3)ccc2-c2nn[nH]n2)cc1 [Example 411] | – | – | 30.9 | 56.4 | – | – | – | – | – | 17 |
| CCCc1nc(CC)c(C(=O)OCc2oc(=O)oc2C)n1Cc1ccc(-c2cc(-c3ccccc3)ccc2-c2nn[nH]n2)cc1 [Example 412, (5-methyl-2-oxo-1,3-dioxol-4-yl)methyl 1-((6′-(2H-tetrazol-5-yl)-[1,1′:3′,1′″-terphenyl]-4-yl)methyl)-4-ethyl-2-propyl-1H-imidazole-5-carboxylate] | – | – | 11.7 | 64.1 | – | – | – | – | – | 62.7 |
| CCCCc1nc(Cl)c(C(=O)O)n1Cc1ccc(-c2cc(-n3ccc4ccccc43)ccc2-c2nn[nH]n2)cc1 [Example 417] | – | – | 5.9 | 39.6 | – | – | – | – | – | > 100000 |
| CCCCc1nc(Cl)c(C(=O)O)n1Cc1ccc(-c2cc(-c3cc(C)ccn3)ccc2-c2nn[nH]n2)cc1 [Example 420] | – | – | 6.5 | 73.6 | – | – | – | – | – | 79.7 |
| CCCCc1nc(Cl)c(C(=O)O)n1Cc1ccc(-c2cc(-c3cc(OC)ccn3)ccc2-c2nn[nH]n2)cc1 [Example 421] | – | – | 9.4 | 38.5 | – | – | – | – | – | 92.5 |
| CCCCc1nc(Cl)c(C(=O)O)n1Cc1ccc(-c2cc(-c3cc(N(C)C)ccn3)ccc2-c2nn[nH]n2)cc1 [Example 422, 2-butyl-4-chloro-1-((5′-(4-(dimethylamino)pyridin-2-yl)-2′-(2H-tetrazol-5-yl)-[1,1′-biphenyl]-4-yl)methyl)-1H-imidazole-5-carboxylic acid] | – | – | 68.7 | 26.7 | – | – | – | – | – | 209 |
